Results on 7 compounds are retold here after patent US8273705B2, “Conversion of apoptotic proteins” (The Burnham Institute, priority 2002, dated 2012).

Like-named read-outs stand apart in the source and are kept apart here.

Experiment [1] concerns TR3 expression. To be noted: human prostate cancer cells; cited from earlier work.
Experiment [2] concerns prostate cancer cells. To be noted: cited from earlier work.
For experiment [3], the system named is lung and breast cancer cells. To be noted: cited from earlier work.
For experiment [4], the system named is TR3 expression. To be noted: lung cancer cells; cited from earlier work.
For experiment [5], the system named is estrogen-dependent and -independent breast cancer cells. To be noted: estrogen-dependent and -independent cell lines; cited from earlier work.
Experiment [6] deals with TR3 expression. In words: TR3 expression by Northern blotting in MDA-MB-231 cells. In kind it is cell-based. To be noted: 3 h, MM11453 and MM11384 10^−6 M, TPA 100 ng/ml, EGF 200 ng/ml. As for the experimental part: TR3 is also expressed in both estrogen-dependent ZR-75-1 and in estrogen-independent MDA-MB-231 breast cancer cells (Wu et al. 1997 Mol Cell Bio 17:6598-6608). […] Total RNAs were prepared from MDA-MB-231 cells treated with MM1153 (10^−6 M), MM11384 (10^−6M), TPA (100 ng/ml) or EGF (200 ng/ml) for 3 h. and analyzed by Northern blotting.

Experiment [7] deals with MDA-MB-231 cells. As to the kind of experiment: GFP-TR3 subcellular localization by confocal microscopy in MDA-MB-231 cells. To be noted: 10^−6 M, 1 hour. In kind it is cell-based. As for the experimental part: Subcellular localization assays—Cells were seeded onto cover-slips in 6-well plates overnight, then transiently transfected with GFP-fusion expression plasmids. After 16 hours, cells were washed with PBS and fixed in 4% paraformaldehyde. For mitochondrial staining, cells were then incubated with anti-Hsp60 goat IgG (Santa Cruz, USA), followed by anti-goat IgG conjugated with Cy3 (Sigma). For cyt c staining, cells were incubated with monoclonal anti-cyt c IgG (PharMingen), followed by anti-mouse IgG conjugated with Cy5 (Amersham). Fluorescent images were collected and analyzed using a MRC-1024 MP laser-scanning confocal microscope (Bio-Rad). Subcellular fractionation assays were performed as described (Li, et al. 2000 Science 289:1159-1164). Briefly, cells (1×10^7 cells) suspended in 0.5 ml hypotonic buffer (5 mM Tris-HCl, pH 7.4, 5 mM KCl, 1.5 mM MgCl2, 0.1 mM EGTA, pH 8.0, and 1 mM DTT) were homogenized and cell extracts were centrifuged at 500×g for 5 min. […]
To study whether the TR3 nuclear-to-mitochondrial targeting pathway also occurs in breast cancer cells, a GFP-TR3 fusion construct was transfected into MDA-MB-231 cells. […] Next, GFP-TR3/ΔDBD was transiently transfected into ZR-75-1 or MDA-MB-231 cells, stained for mitochondria (Hsp60) and cytochrome c (Cyt c), and analyzed by confocal microscopy.

The test system of experiment [8] is LNCaP prostate cancer cells. As to the kind of experiment: Colocalization of endogenous TR3 and transfected Bcl-2 in LNCaP cells. In kind it is cell-based. To be noted: TPA 100 ng/ml, 3 h. As for the experimental part:
D. co-localization in cells—First the interaction of endogenous TR3 and transfected Bcl-2 colocalization was identified in cells. The phorbol ester 12-0-tetradecanoyl phorbol-13-acetate (TPA) induces the expression of endogenous TR3 and its mitochondrial localization in LNCaP prostate cancer cells. LNCaP cells were transfected with Bcl-2 expression vector, treated with or without TPA (100 ng/ml) for 3 h, then immunostained with anti-Bcl-2 antibody (Santa Cruz) followed by Cy5-conjugated secondary antibody (Amersham Biosciences), or with mouse monoclonal anti-TR3 antibody followed by Cy3-conjugated secondary antibody (Sigma). Endogenous TR3 and transfected Bcl-2 were visualized using confocal microscopy and images were overlaid. […] TR3 was not detected prior to TPA treatment. […] In TPA-stimulated cells, the distribution patterns of endogenous TR3 and transfected Bcl-2 overlapped extensively in the cytoplasm, colocalizing with Hsp60, a mitochondria-specific protein.

In experiment [9] the test system is TR3/Bcl-2 interaction. In words: Co-IP of endogenous TR3 and Bcl-2 in LNCaP cells. In kind it is cell-based. To be noted: TPA 3 hours. As for the experimental part: A. co-immunoprecipitation assays—to identify the interaction between TR3 and Bcl-2, a monoclonal antibody was generated against the ligand-binding domain (GBD) of TR3 for co-immunoprecipitation (Co-IP) assays. LNCaP cells were treated with TPA to induce endogenous TR3 expression for 3 hours. Cell extracts were prepared from TPA-treated and non-treated cells and incubated with mouse monoclonal anti-TR3 antibody. Immunoblotting of immunoprecipitates employed anti-Bcl-2 antibody or rabbit polyclonal anti-TR3 anti-body (Active Motif).

Consider `CNc1ccc2oc(C[C@H]3O[C@@]4(CC[C@H]3C)O[C@H]([C@H](C)C(=O)c3ccc[nH]3)[C@H](C)C[C@H]4C)nc2c1C(=O)O` [A23187], for which the TR3 expression result in [1] is on record as “induced TR3 expression”.

With `O=C(O)c1ccc2cc(-c3ccc(O)c(C45CC6CC(CC(C6)C4)C5)c3)ccc2c1` [AHPN, 6-[3-(1-adamantyl)-4-hydroxyphenyl]-2-naphthalene carboxylic acid], the “apoptosis of prostate cancer cells” value in experiment [2] is on record as “potently induces apoptosis”. In experiment [3], the “apoptosis of lung and breast cancer cells” value is “effectively induce apoptosis”. In addition, the TR3 expression result in [4] is reported as “significantly induced”. In addition, the “apoptosis of breast cancer cells” value in [5] is “effectively induces apoptosis”.

As to `Cc1cc2c(cc1/C=C(\Br)C(=O)c1ccc(C(=O)O)cc1)C(C)(C)CCC2(C)C` [MM11384, (Z)-4-[2-bromo-3-(5,6,7,8-tetrahydro-3,5,5,8,8-pentamethyl-2-naphthalenyl)propenoyl]benzoic acid], the TR3 expression result in [6] is listed as “induced”; in experiment [1], “induced TR3 expression”. The GFP-TR3 subcellular localization entry in [7] was “translocated to mitochondria”.

Turning to `O=C(O)c1cc2ccc(-c3ccc(O)c(C45CC6CC(CC(C6)C4)C5)c3)cc2cc1Cl` [MM11453, 6-[3-(1-adamantyl)-4-hydroxyphenyl]-3-chloro-2-naphthalenecarboxylic acid], the TR3 expression result in experiment [6] is recorded as “significantly induced”; in experiment [1], “induced TR3 expression”. For the same compound, the GFP-TR3 subcellular localization entry in [7] is recorded as “translocated to mitochondria”. Besides, the “apoptosis of breast cancer cells” value in experiment [5] was “effectively induces apoptosis”.

Consider `CCCCCCCCCCCCCC(=O)O[C@@H]1[C@@H](C)[C@@]2(O)[C@@H](C=C(CO)C[C@]3(O)C(=O)C(C)=C[C@@H]23)[C@@H]2C(C)(C)[C@]12OC(C)=O` [TPA, 12-O-tetradecanoyl phorbol-13-acetate], for which the TR3 expression result in [6] is on record as “induced”; in experiment [1], “induced TR3 expression”. In addition, the TR3 immunostaining entry in experiment [8] is recorded as “strong TR3 immunostaining”. Also, in [8], the “cells demonstrating colocalization of endogenous TR3 and transfected Bcl-2” value was “Approximately 80%”. Further, in [9], the “co-immunoprecipitation of Bcl-2 by anti-TR3 antibody” value is on record as “specifically co-immunoprecipitated”.

Take `COc1cc([C@@H]2c3cc4c(cc3[C@@H](O[C@@H]3O[C@@H]5CO[C@@H](C)O[C@H]5[C@H](O)[C@H]3O)[C@H]3COC(=O)[C@H]23)OCO4)cc(OC)c1O` [VP-16]: the TR3 expression result in [1] is on record as “induced TR3 expression”.

For the compound “EGF: the mitogenic agent epidermal growth factor”, the TR3 expression result in experiment [6] is reported as “induced”.
